Measurements: patent US12559529B2, “NPY2 receptor agonists” (Boehringer Ingelheim International GmbH, priority 2019, dated 2026)

Biological target: T1, Human Neuropeptide Y2 Receptor (Homo sapiens, UniProt P49146)
T1 construct: purchased CHEMICON HTS066M
T1 sequence (P49146 1-381): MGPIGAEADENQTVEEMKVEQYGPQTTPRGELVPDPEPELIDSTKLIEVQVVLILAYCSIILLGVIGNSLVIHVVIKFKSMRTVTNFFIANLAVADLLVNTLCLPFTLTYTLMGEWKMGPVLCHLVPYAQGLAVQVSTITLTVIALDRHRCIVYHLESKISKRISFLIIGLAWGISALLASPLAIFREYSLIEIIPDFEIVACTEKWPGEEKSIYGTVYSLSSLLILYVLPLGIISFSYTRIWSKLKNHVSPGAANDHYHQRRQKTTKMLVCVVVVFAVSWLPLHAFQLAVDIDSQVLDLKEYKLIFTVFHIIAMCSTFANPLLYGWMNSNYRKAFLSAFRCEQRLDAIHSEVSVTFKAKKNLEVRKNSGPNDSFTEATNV
Assay: Radioligand binding competition assay (RLB)
Settings: Table 3; human 125I-PYY (1-36) 0.02 nM, Y2 receptor membranes; read-out: Ki
Protocol: The filtration RLB assay was carried out in 96-well plates in a final volume of 100 μl per well. Freeze-dried test peptides were dissolved in 100% dimethyl sulfoxide (DMSO) to stock solutions of 1 mM and serial dilutions were performed in assay buffer (50 mM HEPES, 5 mM MgCl2, 1 mM CaCl2), pH 7.4) containing 0.2% ovalbumin. […] Next, 80 μL membranes (HTS066M, ChemiSCREEN™ Human Neuropeptide Y2 Receptor Membrane Preparation, CHEMICON) were added to each well to give a final protein concentration of 0.5 μg/well. The plates were sealed and incubated at room temperature for 2 hours in a plate shaker set at 400 rpm. The incubation was stopped by vacuum filtration onto 0.5% poly-ethylene amine (PEI) presoaked GF/C filters using a 96-well FilterMate™ harvester (Perkin Elmer) followed by four washes with 300 μl/well ice-cold wash buffer (50 mM HEPES, 500 mM NaCl, pH7.4). Filter plates were then dried for 60 min at room temperature and the bottom of the plates was sealed with backing tape UniFilter-96. Finally, 50 μl/well scintillation counter cocktail (Microscint20, Packard) was added and the radioactivity was counted in the Packard TopCount NXT scintillation counter. IC50 values (the half maximal inhibitory concentration of the agonist) were calculated by nonlinear regression analysis of sigmoidal dose-response curves.

| SMILES | Ki [nM] |
| --- | --- |
| CC(C)CC(=O)N[C@@H](C)C(=O)N1CCC[C@H]1C(=O)N[C@@H](CCC(=O)O)C(=O)N[C@@H](CCCCNC(=O)COCCOCCNC(=O)COCCOCCNC(=O)CC[C@H](NC(=O)CCCCCCCCCCCCCCCCC(=O)O)C(=O)O)C(=O)N1CCC[C@H]1C(=O)N[C@@H](CCC(=O)O)C(=O)N[C@@H](CCC(=O)O)C(=O)N[C@@H](CC(=O)O)C(=O)N[C@@H](C)C(=O)N[C@@H](C)C(=O)N1CCC[C@H]1C(=O)N[C@@H](CCC(=O)O)C(=O)N[C@@H](CCC(=O)O)C(=O)N[C@@H](CC(C)C)C(=O)N[C@@H](CCC(N)=O)C(=O)N[C@@H](CCCNC(=N)N)C(=O)N[C@@H](Cc1ccc(O)cc1)C(=O)N[C@@H](Cc1ccc(O)cc1)C(=O)N[C@H](C(=O)N[C@@H](CCC(=O)O)C(=O)N[C@@H](CC(C)C)C(=O)N[C@@H](CCCNC(=N)N)C(=O)N[C@@H](Cc1c[nH]cn1)C(=O)N[C@@H](Cc1ccc(O)cc1)C(=O)N[C@@H](Cc1ccc(O)cc1)C(=O)N[C@@H](CC(N)=O)C(=O)N[C@@H](Cc1c[nH]c2ccccc12)C(=O)N[C@@H](CC(C)C)C(=O)N[C@H](C(=O)N[C@@H](CCCNC(=N)N)C(=O)N[C@@H](CCC(N)=O)C(=O)N[C@@H](CCCNC(=N)N)C(=O)N[C@@H](Cc1ccc(O)cc1)C(N)=O)[C@@H](C)O)C(C)C [Compound 20, N{alpha-4}-(3-methylbutanoyl)-N{epsilon-7}-[2-(2-{2-[2-(2-{2-[(4S)-4-carboxy-4-(17-carboxyheptadecanamido)butanamido]ethoxy}ethoxy)acetamido]ethoxy}ethoxy)acetamido]-[4A,7K,9E,13A,18Q,22V,23E,28Y,30W,31L]hPYY (4-36)] | 2.57 |
| CC(C)CC(=O)N[C@@H](C)C(=O)N1CCC[C@H]1C(=O)N[C@@H](CCC(=O)O)C(=O)N[C@@H](CCCCNC(=O)COCCOCCNC(=O)COCCOCCNC(=O)CC[C@H](NC(=O)CCCCCCCCCCCCCCCCC(=O)O)C(=O)O)C(=O)N1CCC[C@H]1C(=O)N[C@@H](CCC(=O)O)C(=O)N[C@@H](CCC(=O)O)C(=O)N[C@@H](CC(=O)O)C(=O)N[C@@H](C)C(=O)N[C@@H](CO)C(=O)N1CCC[C@H]1C(=O)N[C@@H](CCC(=O)O)C(=O)N[C@@H](CCC(=O)O)C(=O)N[C@@H](CC(C)C)C(=O)N[C@@H](CCC(N)=O)C(=O)N[C@@H](CCCNC(=N)N)C(=O)N[C@@H](Cc1ccc(O)cc1)C(=O)N[C@@H](Cc1ccc(O)cc1)C(=O)N[C@H](C(=O)N[C@@H](CO)C(=O)N[C@@H](CC(C)C)C(=O)N[C@@H](CCCNC(=N)N)C(=O)N[C@@H](CCCCN)C(=O)N[C@@H](Cc1ccc(O)cc1)C(=O)N[C@@H](Cc1ccc(O)cc1)C(=O)N[C@@H](CC(N)=O)C(=O)N[C@@H](Cc1c[nH]c2ccccc12)C(=O)N[C@@H](CC(C)C)C(=O)N[C@H](C(=O)N[C@@H](CCCNC(=N)N)C(=O)N[C@@H](CCC(N)=O)C(=O)N[C@@H](CCCNC(=N)N)C(=O)N[C@@H](Cc1ccc(O)cc1)C(N)=O)[C@@H](C)O)C(C)C [Compound 24, N{alpha-4}-(3-methylbutanoyl)-N{epsilon-7}-[2-(2-{2-[2-(2-{2-[(4S)-4-carboxy-4-(17-carboxyheptadecanamido)butanamido]ethoxy}ethoxy)acetamido]ethoxy}ethoxy)acetamido]-[4A,7K,9E,18Q,22V,26K,28Y,30W,31L]hPYY (4-36)] | 2.22 |
